Earlier results, collected in patent publication US20190209686A1, “PULSE PHOTODYNAMIC TREATMENT OF ACNE” (GALDERMA RESEARCH & DEVELOPMENT, priority 2013, published 2019).
Read-outs that look alike come from different tables or passages of the source.

Columns and labels:
acne [1] = conditions: cream 16% wt., 3 hours, non-coherent red light
acne [2] = conditions: 20%, 3 hours, 150 J/cm2 broad band light

In the case of `COC(=O)CCC(=O)CN` [methyl ALA ester, 5-ALA methyl ester], the “side effects of PDT reported by subjects” value (acne [1]) is given as “caused pain and induced severe inflammation” and the “efficacy of PDT in acne” value (acne [1]; repeated 2 weeks later) is given as “effective in the treatment of acne”.
In the case of `NCC(=O)CCC(=O)O` [ALA acid, 5-amino-4-oxo-pentanoic acid], the “efficacy of PDT in acne” value (acne [2]) is given as “effective for the treatment of acne” and the “side effects after PDT” value (acne [2]) is given as “erythema, hyperpigmentation and exfoliation were often seen after PDT treatment”.
